# What was measured:
# Assay type in all cases: cell-based
# HL-60(TB) = assay: NCI In-Vitro Testing, Leukemia
# AS45/ATCC = assay: NCI In-Vitro Testing, Non-Small Cell Lung Cancer
# EKVX = assay: NCI In-Vitro Testing, Non-Small Cell Lung Cancer
# NCI-H23 = assay: NCI In-Vitro Testing, Non-Small Cell Lung Cancer
# NCI-H460 = assay: NCI In-Vitro Testing, Non-Small Cell Lung Cancer
# COLO 205 = assay: NCI In-Vitro Testing, Colon Cancer
# SF-258 = assay: NCI In-Vitro Testing, CNS Cancer
# SNB-19 = assay: NCI In-Vitro Testing, CNS Cancer
# SNB-75 = assay: NCI In-Vitro Testing, CNS Cancer
smiles,measurement,setting,value
Nc1nc2c(c(Nc3ccc(Cl)cc3)n1)-c1ccccc1C2 [AAG145-136],GI50,HL-60(TB),1.50E−7 Molar
same,LC50,HL-60(TB),>1.00E−4 Molar
same,TGI,HL-60(TB),>1.00E−4 Molar
same,Percent Growth,HL-60(TB); Log10 Concentration −4.0 Molar,12%
same,Percent Growth,HL-60(TB); Log10 Concentration −5.0 Molar,13%
same,Percent Growth,HL-60(TB); Log10 Concentration −6.0 Molar,23%
same,Percent Growth,HL-60(TB); Log10 Concentration −7.0 Molar,56%
same,Percent Growth,HL-60(TB); Log10 Concentration −8.0 Molar,87%
same,GI50,AS45/ATCC,4.34E−8 Molar
same,LC50,AS45/ATCC,>1.00E−4 Molar
same,TGI,AS45/ATCC,>1.00E−4 Molar
same,Percent Growth,AS45/ATCC; Log10 Concentration −4.0 Molar,7%
same,Percent Growth,AS45/ATCC; Log10 Concentration −5.0 Molar,15%
same,Percent Growth,AS45/ATCC; Log10 Concentration −6.0 Molar,21%
same,Percent Growth,AS45/ATCC; Log10 Concentration −7.0 Molar,33%
same,Percent Growth,AS45/ATCC; Log10 Concentration −8.0 Molar,30%
same,GI50,EKVX,2.71E−8 Molar
same,LC50,EKVX,>1.00E−4 Molar
same,TGI,EKVX,>1.00E−4 Molar
same,Percent Growth,EKVX; Log10 Concentration −4.0 Molar,4%
same,Percent Growth,EKVX; Log10 Concentration −5.0 Molar,26%
same,Percent Growth,EKVX; Log10 Concentration −6.0 Molar,68%
same,Percent Growth,EKVX; Log10 Concentration −7.0 Molar,68%
same,Percent Growth,EKVX; Log10 Concentration −8.0 Molar,101%
same,GI50,NCI-H23,5.55E−7 Molar
same,LC50,NCI-H23,>1.00E−4 Molar
same,TGI,NCI-H23,>1.00E−4 Molar
same,Percent Growth,NCI-H23; Log10 Concentration −4.0 Molar,16%
same,Percent Growth,NCI-H23; Log10 Concentration −5.0 Molar,21%
same,Percent Growth,NCI-H23; Log10 Concentration −6.0 Molar,37%
same,Percent Growth,NCI-H23; Log10 Concentration −7.0 Molar,90%
same,Percent Growth,NCI-H23; Log10 Concentration −8.0 Molar,86%
same,GI50,NCI-H460,1.93E−8 Molar
same,LC50,NCI-H460,>1.00E−4 Molar
same,TGI,NCI-H460,>1.00E−4 Molar
same,Percent Growth,NCI-H460; Log10 Concentration −4.0 Molar,3%
same,Percent Growth,NCI-H460; Log10 Concentration −5.0 Molar,3%
same,Percent Growth,NCI-H460; Log10 Concentration −6.0 Molar,15%
same,Percent Growth,NCI-H460; Log10 Concentration −7.0 Molar,23%
same,Percent Growth,NCI-H460; Log10 Concentration −8.0 Molar,61%
same,GI50,COLO 205,6.38E−7 Molar
same,LC50,COLO 205,>1.00E−4 Molar
same,TGI,COLO 205,>1.00E−4 Molar
same,Percent Growth,COLO 205; Log10 Concentration −4.0 Molar,11%
same,Percent Growth,COLO 205; Log10 Concentration −5.0 Molar,11%
same,Percent Growth,COLO 205; Log10 Concentration −6.0 Molar,41%
same,Percent Growth,COLO 205; Log10 Concentration −7.0 Molar,86%
same,Percent Growth,COLO 205; Log10 Concentration −8.0 Molar,99%
same,GI50,SF-258,8.62E−8 Molar
same,LC50,SF-258,>1.00E−4 Molar
same,TGI,SF-258,>1.00E−4 Molar
same,Percent Growth,SF-258; Log10 Concentration −4.0 Molar,21%
same,Percent Growth,SF-258; Log10 Concentration −5.0 Molar,19%
same,Percent Growth,SF-258; Log10 Concentration −6.0 Molar,27%
same,Percent Growth,SF-258; Log10 Concentration −7.0 Molar,45%
same,Percent Growth,SF-258; Log10 Concentration −8.0 Molar,104%
same,GI50,SNB-19,1.13E−7 Molar
same,LC50,SNB-19,>1.00E−4 Molar
same,TGI,SNB-19,>1.00E−4 Molar
same,Percent Growth,SNB-19; Log10 Concentration −4.0 Molar,6%
same,Percent Growth,SNB-19; Log10 Concentration −5.0 Molar,17%
same,Percent Growth,SNB-19; Log10 Concentration −6.0 Molar,28%
same,Percent Growth,SNB-19; Log10 Concentration −7.0 Molar,51%
same,Percent Growth,SNB-19; Log10 Concentration −8.0 Molar,100%
same,GI50,SNB-75,5.03E−6 Molar
same,LC50,SNB-75,>1.00E−4 Molar
same,TGI,SNB-75,6.44E−5 Molar
same,Percent Growth,SNB-75; Log10 Concentration −4.0 Molar,−10%
same,Percent Growth,SNB-75; Log10 Concentration −5.0 Molar,41%
same,Percent Growth,SNB-75; Log10 Concentration −6.0 Molar,71%
same,Percent Growth,SNB-75; Log10 Concentration −7.0 Molar,92%
same,Percent Growth,SNB-75; Log10 Concentration −8.0 Molar,95%
